Data on 21 molecules can be found in paper PMC3503826, “Limits of Ligand Selectivity from Docking to Models: In Silico Screening for A1 Adenosine Receptor Antagonists” (PLoS ONE, 2012).

For one test, the target named is T1, human A3AR (Homo sapiens, UniProt P0DMS8).
T1 construct: expressed in transfected cells
T1 sequence (P0DMS8 1-318): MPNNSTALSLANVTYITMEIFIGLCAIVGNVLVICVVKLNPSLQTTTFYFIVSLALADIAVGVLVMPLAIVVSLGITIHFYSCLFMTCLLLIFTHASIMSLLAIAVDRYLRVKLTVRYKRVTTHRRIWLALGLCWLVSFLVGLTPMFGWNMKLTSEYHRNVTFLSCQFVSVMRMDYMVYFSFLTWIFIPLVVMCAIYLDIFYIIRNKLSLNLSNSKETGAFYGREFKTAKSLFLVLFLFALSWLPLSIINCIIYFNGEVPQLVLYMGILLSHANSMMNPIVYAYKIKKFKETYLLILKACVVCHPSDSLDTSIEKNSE
Briefly: Radioligand binding ([125I]I-AB-MECA), membranes of CHO cells expressing hA3AR. The following applies: for Ki / inhibition at 10 µM: hA3AR, CHO cell membranes; for Ki: [125I]I-AB-MECA 0.2 nM, mean ± standard error, read-out: A3 Ki; for inhibition at 10 µM: percent inhibition at 10 µM compound, [125I]I-AB-MECA, read-out: A3 % Inhibition. How it is done: (§1) Binding affinity for three human AR (hAR) subtypes was measured using standard radioligand assays and membrane preparations from Chinese hamster ovary (CHO) cells (A1 and A3) or human embryonic kidney (HEK) 293 cells (A2A) stably expressing a hAR subtype (Table 1).
(§2) Receptor binding assays: [^3H]8-Cyclopentyl-1,3-dipropylxanthine ([^3H]DPCPX, 120 Ci/mmol) and [^125I]N ^6-(4-amino-3-iodobenzyl)adenosine-5'-N-methyluronamide ([^125I]I-AB-MECA, 2200 Ci/mmol) were purchased from Perkin–Elmer Life and Analytical Science (Boston, MA). [^3H](2-[p-(2-Carboxyethyl)phenyl-ethylamino]-5'-N-ethylcarboxamido-adenosine) ([^3H]CGS21680, 39 Ci/mmol) was purchased from American Radiolabeled Chemicals, Inc. (St. Louis, MO). Other pharmacological reagents were purchased from Tocris-R&D Systems, Inc. (Minneapolis, MN). Test compounds were prepared as 5 mM stock solutions in DMSO and stored frozen.
(§3) Cell Culture and Membrane Preparation: CHO cells stably expressing the recombinant hA1 and hA3ARs, and HEK-293 cells stably expressing the hA2AAR were cultured in Dulbecco’s modified Eagle medium (DMEM) and F12 (1∶1) supplemented with 10% fetal bovine serum, 100 units/mL penicillin, 100 µg/mL streptomycin, and 2 µmol/mL glutamine. In addition, 800 µg/mL geneticin was added to the A2A media, while 500 µg/mL hygromycin was added to the A1 and A3 media. After harvesting, cells were homogenized and suspended in PBS. Cells were then centrifuged at 240 g for 5 min, and the pellet was resuspended in 50 mM Tris-HCl buffer (pH 7.5) containing 10 mM MgCl2. The suspension was homogenized and was then ultra-centrifuged at 14,330 g for 30 min at 4°C. The resultant pellets were resuspended in Tris buffer and incubated with adenosine deaminase (3 units/mL) for 30 min at 37°C. The suspension was homogenized with an electric homogenizer for 10 sec, pipetted into 1 mL vials and then stored at -80°C until the binding experiments. The protein concentration was measured using the BCA Protein Assay Kit from Pierce Biotechnology, Inc. (Rockford, IL).
(§4) Binding assays: Standard radioligand binding assays for A1, A2A, and A3ARs were used [37]–[39]. Into each tube in the binding assay was added 50 µL of increasing concentrations of the test ligand in Tris-HCl buffer (50 mM, pH 7.5) containing 10 mM MgCl2, 50 µL of the appropriate agonist radioligand, and finally 100 µL of membrane suspension. For the A1AR (22 µg of protein/tube) the radioligand used was [^3H]DPCPX (final concentration of 0.5 nM). For the A2AAR (20 µg/tube) the radioligand used was [^3H]CGS21680 (final concentration 10 nM). For the A3AR (21 µg/tube) the radioligand used was [^125I]I-AB-MECA (final concentration 0.2 nM). Nonspecific binding was determined using a final concentration of 10 µM NECA diluted with the buffer. The mixtures were incubated at 25°C for 60 min in a shaking water bath. Binding reactions were terminated by filtration through Brandel GF/B filters under a reduced pressure using a M-24 cell harvester (Brandel, Gaithersburg, MD). Filters were washed three times with 3 mL of 50 mM ice-cold Tris-HCl buffer (pH 7.5). Filters for A1 and A2AAR binding were placed in scintillation vials containing 5 mL of Hydrofluor scintillation buffer and counted using a Perkin Elmer Liquid Scintillation Analyzer (Tri-Carb 2810TR). Filters for A3AR binding were counted using a Packard Cobra II γ-counter.
(§5) Data analysis: Binding and functional parameters were calculated using Prism 5.0 software (GraphPAD, San Diego, CA, USA). IC50 values obtained from binding inhibition curves were converted to Ki values using the Cheng-Prusoff equation [40]. Data were expressed as mean ± standard error or percentage inhibition at 10 µM.

The next test deals with T2, human A1AR (Homo sapiens, UniProt P30542).
T2 construct: expressed in transfected cells
T2 sequence (P30542 1-326): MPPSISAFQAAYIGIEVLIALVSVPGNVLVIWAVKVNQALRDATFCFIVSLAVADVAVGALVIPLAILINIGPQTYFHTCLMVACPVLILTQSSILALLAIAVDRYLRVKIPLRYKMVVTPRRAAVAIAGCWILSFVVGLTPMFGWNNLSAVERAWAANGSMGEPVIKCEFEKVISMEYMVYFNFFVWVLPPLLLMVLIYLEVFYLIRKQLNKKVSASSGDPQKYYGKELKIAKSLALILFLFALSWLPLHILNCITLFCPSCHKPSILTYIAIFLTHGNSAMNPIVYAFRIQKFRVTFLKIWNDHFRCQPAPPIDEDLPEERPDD
Briefly: Radioligand binding ([3H]DPCPX), membranes of CHO cells expressing hA1AR. The following applies: for inhibition at 10 µM: percent inhibition at 10 µM compound, [3H]DPCPX, read-out: A1 % Inhibition; for inhibition at 10 µM / Ki: hA1AR, CHO cell membranes; for Ki: [3H]DPCPX 0.5 nM, mean ± standard error, read-out: A1 Ki. The protocol: as §1, §2, §3, §4, §5

The next test concerns the target T3, human A2AAR (Homo sapiens, UniProt P29274).
T3 construct: expressed in transfected cells
Briefly: Radioligand binding ([3H]CGS21680), membranes of HEK293 cells expressing hA2AAR. The following applies: HEK293 cell membranes; for Ki: [3H]CGS21680 10 nM, mean ± standard error, read-out: A2A Ki; for inhibition at 10 µM: percent inhibition at 10 µM compound, [3H]CGS21680, read-out: A2A % Inhibition. The protocol: as §1, §2, §3, §4, §5

A further test concerns the target bovine A1AR. Further details: method as in PMID 21080692. The following applies: reference compound; cited from earlier work.

T3 sequence (P29274 whole entry): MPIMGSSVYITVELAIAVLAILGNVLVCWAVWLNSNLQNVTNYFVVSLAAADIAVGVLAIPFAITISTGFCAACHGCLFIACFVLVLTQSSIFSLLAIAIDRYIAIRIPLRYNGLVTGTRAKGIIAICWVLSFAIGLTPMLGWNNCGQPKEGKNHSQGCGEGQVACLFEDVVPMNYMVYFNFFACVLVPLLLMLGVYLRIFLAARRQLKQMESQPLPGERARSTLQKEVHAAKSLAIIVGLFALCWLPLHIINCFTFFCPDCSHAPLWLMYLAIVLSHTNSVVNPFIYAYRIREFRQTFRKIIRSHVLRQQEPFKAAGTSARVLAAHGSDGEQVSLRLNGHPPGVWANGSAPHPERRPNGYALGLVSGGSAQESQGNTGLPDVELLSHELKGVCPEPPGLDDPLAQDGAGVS

Take `N#Cc1cccc(C(=O)Nc2nc(-c3ccccn3)cs2)c1` [Compound 20]: the Ki at human A3AR is 1.52 ± 0.36 µM; on human A2AAR, 3.56 ± 0.51 µM. Besides, at human A1AR, the inhibition at 10 µM turned out to be 45%.

With `Nc1nc(Cn2nnc(-c3ccccc3)n2)nc(Nc2ccccc2)n1` [Compound 24], the results for the Ki at human A3AR and on human A2AAR were 0.04 ± 0.006 µM and 6.14 ± 1.69 µM, respectively. Further, on human A3AR (judged from Ki at the three hAR subtypes), the “Selectivity for A3AR” value is “slightly selective”. Further, at human A1AR, the inhibition at 10 µM stood at 33 ± 9%.

For the molecule `CCCn1nc(C(=O)Nc2nc(-c3ccccn3)cs2)ccc1=O` [Compound 11], on human A3AR, the Ki was found to be 13.7 µM. In addition, the values for the inhibition at 10 µM on human A1AR and on human A2AAR were 13 ± 9% and 35 ± 3%, respectively.

As for `C=CCOc1ccccc1/C=N/Nc1nc2ccccc2c(=O)n1C` [Compound 25], the Ki was 0.55 ± 0.07 µM on human A3AR, 2.93 ± 0.48 µM on human A1AR and 1.45 ± 0.17 µM at human A2AAR.

Take `CCS(=O)(=O)Nc1cccc(C(=O)Nc2nc3ccccc3[nH]2)c1` [Compound 21]: the Ki worked out at 0.205 ± 0.03 µM on human A3AR, 0.98 ± 0.09 µM at human A1AR and 1.34 ± 0.31 µM on human A2AAR.

`Cc1ccccc1Nc1nc(N)nc(COc2ccccc2C#N)n1` [Compound 9]: the Ki on human A3AR was determined as 4.86 ± 0.33 µM; on human A2AAR it was 2.36 ± 0.26 µM. Further, on human A1AR, the inhibition at 10 µM worked out at 2 ± 2%.

For the molecule `Nc1nc(COC(=O)c2cc3cc(F)ccc3[nH]2)nc2ccccc12` [Compound 15], on human A3AR, the Ki was 9.33 ± 1.8 µM. In addition, the inhibition at 10 µM is 20 ± 4% at human A1AR and 5 ± 3% at human A2AAR.

Turning to `O=C(Nc1nc(-c2ccccn2)cs1)c1cccc(-n2cnnn2)c1` [Compound 8], the values for the inhibition at 10 µM at human A3AR and at human A2AAR were 35 ± 4% and 11 ± 6%, respectively. Besides, the “Selectivity for A1AR over A2AAR and A3AR” value on human A1AR (by the criteria used in this screen (>50% inhibition at 10 µM)) is recorded as “selective for the A1AR”. Besides, the Ki at human A1AR was determined as 3.46 ± 0.42 µM.

On to `CC(NC(=O)c1ccco1)C(=O)Nc1nc(-c2ccccn2)cs1` (stereo not drawn) [Compound 7], for which the inhibition at 10 µM at human A3AR was determined as 43 ± 3%; on human A1AR, 17 ± 9%. The Ki on human A2AAR was found to be 3.31 ± 0.27 µM.

As to `COc1cccc(/C=C/C(=O)Nc2nc(-c3ccccn3)cs2)c1` [Compound 13], the Ki was 3.48 ± 1.1 µM at human A3AR and 10.9 µM on human A2AAR. On human A1AR, the inhibition at 10 µM was determined as 10 ± 10%.

In the case of `Cc1cc(C)c2c(=O)[nH]c(SCC(=O)Nc3cc(C)on3)nc2n1` [Compound 26], the Ki amounted to 3.85 ± 0.59 µM at human A3AR, 3.94 ± 0.39 µM on human A1AR and 1.37 ± 0.47 µM on human A2AAR.

Turning to `O=C(Nc1nc(-c2ccccn2)cs1)c1cc2c(F)cccc2[nH]1` [Compound 10], the Ki on human A3AR was 9.06 ± 1.1 µM. Moreover, the inhibition at 10 µM came out at 9 ± 9% on human A1AR and 37 ± 1% at human A2AAR.

As for `Cn1c(=O)c2[nH]c(NCC3CCCO3)nc2n(-c2ccccc2)c1=O` (stereo not drawn) [Compound 19], the inhibition at 10 µM on human A3AR was determined as 23 ± 3%. Moreover, the inhibitory constant (Ki) at human A1AR is 3.34 ± 0.56 µM; on human A2AAR it was 6.66 ± 0.86 µM.

As for `Cn1nnnc1SCC(=O)Nc1nc(-c2cccs2)cs1` [Compound 18], the Ki at human A3AR came out at 1.76 ± 0.21 µM; on human A1AR, 3.43 ± 1.03 µM; at human A2AAR, 2.13 ± 0.72 µM.

`O=C(Nc1nc(-c2cccc(F)c2)cs1)c1ccc2[nH]nnc2c1` [Compound 23]: the Ki came to 0.07 ± 0.02 µM on human A3AR, 1.22 ± 0.34 µM on human A1AR and 3.78 ± 0.83 µM on human A2AAR.

Regarding `Cc1cccc2c(=O)[nH]c(CSc3n[nH]c(C(C)C)n3)nc12` [Compound 14], the inhibition at 10 µM on human A3AR stood at 49 ± 1%; at human A1AR, 19 ± 10%. For the same molecule, the Ki at human A2AAR turned out to be 6.54 ± 1.09 µM.

Regarding `OC1CCC(Nc2nc(-c3ccccc3)nc3c2nnn3Cc2ccccc2)CC1` (stereo not drawn) [Compound 5, 4-[(3-benzyl-5-phenyl-triazolo[4,5-e]pyrimidin-7-yl)amino]cyclohexan-1-ol], on bovine A1AR, the Ki was 0.003 µM.

As to `CCOc1cccc2cc(C(=O)NCc3ccccn3)c(=N)oc12` [Compound 17], the inhibition at 10 µM on human A3AR came to 48 ± 7%. The Ki was 0.4 ± 0.06 µM on human A1AR and 0.74 ± 0.39 µM on human A2AAR.

For `CN(C(=O)Cc1csc(NC(=O)C2CC2)n1)c1ccccc1` [Compound 16], the Ki on human A3AR is 13.4 µM. Moreover, the inhibition at 10 µM amounted to 13 ± 2% at human A1AR and 36 ± 0.2% at human A2AAR.

As for `COc1ccc(OCC(=O)Nc2nc(-c3ccccn3)cs2)cc1` [Compound 12], the results for the Ki at human A3AR and on human A2AAR were 2.78 ± 0.92 µM and 3.65 ± 0.87 µM, respectively. Also, the inhibition at 10 µM on human A1AR stood at 28 ± 9%.

`CCN(Cc1nc2ccccc2c(=O)[nH]1)C(=O)c1cc(C2CC2)[nH]n1` [Compound 22]: the inhibition at 10 µM was 42 ± 6% on human A3AR and 36% on human A1AR. The Ki on human A2AAR was determined as 9.3 ± 0.7 µM.
